According to patent US20250144247A1, “FORMULATIONS TO ENHANCE THE DELIVERY OF GENE THERAPY VECTORS” (priority 2023, published 2025):
Where two headings read alike, the source gives them in different places.

What was measured:
[1] = tested on: human airway epithelial cells (HAE); type: cell-based; conditions: for Ad gene transfer: imaged 5 days
[2] = tested on: human airway epithelial cells (HAE); experiment: LDH release / integrity of HAE; type: cell-based
Protocol: GFP images were acquired using a Keyence All-in-one Fluorescence Microscope BZ-X series (Osaka, Japan). 0.33 cm^2 Transwells were imaged at 2× magnification. GFP expression was quantified by flow cytometry as previously reported (36). Briefly, cells were stained with a fixable LIVE/DEAD stain (Thermo Fisher Scientific, Waltham, MA, USA), lifted in Accutase at 37° C. for 30 minutes, and run through an Attune NxT Flow Cytometer (Thermo Fisher Scientific, Waltham, MA, USA). Cells were treated with the Foxp3/Transcription Factor Staining Buffer Set (Thermo Fisher Scientific, Waltham, MA, USA) according to manufacturer's recommendations and stained for 1 hour at 37° C. with the following antibodies: NGFR (345110; 1:600, BioLegend, San Diego, CA, USA), α-tubulin (NB100-69AF405, 1:300, Novus, Centennial, CO, USA) and CD66c (12-0667-42, 1:600, Invitrogen, Waltham, MA). Expression was gated on live cells. Immunofluorescence staining of pig tissue sections was performed using acetylated α-tubulin (D20G3, 1:200, Cell Signaling Technology, Danvers, MA) or cytokeratin 5 (CK5) (Polyl9055, 1:500, San Diego, CA). Primary antibodies were detected using a goat anti-rabbit Alexa 546 secondary anti-body (A-11035, 1:600, Thermo Fisher Scientific, Waltham, MA).
LDH release was quantified according to the manufacturer's recommendations (LDH-Glo Cytotoxicity Assay, Promega, Madison, WI). Briefly, basolateral media from each condition was collected in a 96 well plate. The LDH detection reagents were mixed in a 1:1 ratio and applied to each well and incubated for 30 minutes. Luminescence was recorded using a SpectraMax i3x plate reader.

[3] = tested on: CFTR anion transport in CF HAE; experiment: Ussing chamber short circuit current and conductance of CF HAE; type: cell-based, human
[4] = tested on: measles virus (MeV); experiment: Measles virus (MeV) infection of HAE; type: cell-based, human; conditions: wild-type MeV, NaCl (4%)
Protocol: […] After infection, virus inoculums removed. […] After infection, basolateral-infected cultures were returned upright. All MeV infections took place for 4 hours in 37° C. at an MOI of 1 with a total inoculum of 50 μL.

[5] = tested on: human airway epithelial cells (HAE); experiment: AAV2.5T-GFP transduction of HAE; type: cell-based; conditions: NaCl 4.5%, MOI=100,000 vg/cell, 2 hours, doxorubicin 1 μM pre-treatment, 2 weeks
[6] = tested on: newborn pig tracheal explants; experiment: Pig tracheal explant transduction ex vivo; conditions: NaCl 5%, apical 2 hours
Protocol: 0.25 cm^2 tracheal explants from newborn pigs were cultured on Surgifoam (1972, Ethicon, Raritan, NJ) for 3-5 days prior to transduction. Ad5-mcherry (1×10^9 TU), AAVH22-GFP (2×10^10 vg), and GP64 HIV-GFP (1.75×10^7 TU) were applied with or without NaCl (5%) to the apical surface of the trachea by inverting the trachea onto a tissue culture dish containing the viral solution for 2 hours then returned to an upright position on Surgifoam. 5 days post-transduction, tracheal explants were mounted on a microscope slide and imaged for fluorescent expression using confocal microscopy. Expression was quantified using Image J (FIJI) by measuring fluorescence intensity per high power field.
Using freshly excised newborn pig tracheal explants maintained on Surgifoam, Ad-GFP or AAVH22-GFP (a pig-tropic AA V capsid)±NaCl (5%) was applied to the apical surface by inverting the tissue in a culture dish for 2 hours. One week later, tissues were fixed and imaged by confocal microscopy. […] Fluorescence was quantified by transduction area per high power field.

[7] = tested on: mouse airways; experiment: Adenoviral transduction of mouse airways (Ad-luciferase, IVIS); type: in vivo, Balb/c mice; conditions: Ad-luciferase intratracheal, 7% NaCl vs 0.9% NaCl, five days
Protocol: 6-8-week-old Balb/c mice were sedated with ketamine/xylazine (87.5+2.5 mg/kg). Ad-CMV-firefly luciferase was delivered intratracheally with 1×10^9 TU formulated with NaCl (0.9% or 7% final) in a 50 ul volume. 5 days later mice were given intraperitoneal D-luciferin (50227, Millipore Sigma, St. Louis, MO) imaged for luminescence expression using the Xenogen IVIS-200.

[8] = tested on: pig airways; experiment: Viral gene transfer in pig airways; type: in vivo, newborn pigs
Protocol: Newborn pigs were sedated using isoflurane and viral vector formulated with NaCl (0.9% or 5% final) and acrosolized 2 ml intratracheally using a MADgic Laryngo-Tracheal Mucosal Atomization Device (Teleflex, Morrisville, NC). Doses for each vector for each pig were as follows: 2.8×10^10 infectious genomic units (IGU) of helper-dependent Ad-CMV-GFP and 7×10^8 TU of GP64 HIV-CMV-GFP. Doses were prepared by mixing a 1.8% NaCl or 10% NaCl stock 1:1 with 1 ml of vector. 1 week later, pigs were humanely euthanized, and lungs were analyzed for GFP expression. Lungs were systematically divided and fixed in 4% paraformaldehyde, subjected to a sucrose gradient, and embedded in OCT for cryosectioning. Sectioned lung slides were mounted using DAPI and imaged using a Keyence All-in-one Fluorescence Microscope BZ-X series (Osaka, Japan).
To determine cell types transduced in vivo, a pig model that more closely recapitulates the anatomy and cell biology of human airways was used. Newborn pigs received Ad-GFP via intratracheal delivery with 0.9% NaCl or 5% NaCl. Five days after delivery, lungs were collected and GFP expression was visualized under a fluorescence dissecting microscope (data not shown). Lungs were divided into 20 regions for systematic quantification as previously described (data not shown) and scored based on level of expression (0=no expression, 1=low expression, 2=moderate expression, and 3=high expression) (data not shown).

[9] = Osmolarity and pH of the solutions; type: physicochemical
[10] = tested on: cultured cells on plastic; experiment: Gene transfer of cultured cells on plastic with hypertonic saline; type: cell-based
[11] = tested on: human airway epithelial cells (HAE); experiment: Scanning electron microscopy of HAE surface; conditions: NaCl 3.6% for 2 hours vs no NaCl control

SMILES: [Cl-].[Na+] [NaCl, sodium chloride]
- Ad gene transfer ([1]; 0.9% NaCl (PBS), Ad-GFP MOI=250, apical 2 hours): did not enhance Ad gene transfer
- transduction of basal, secretory and ciliated cells ([1]; 1-7% NaCl, Ad-GFP MOI=250): all transduced in a dose dependent manner
- Ad-GFP transduction efficiency, comparison of osmolytes ([1]; 3.6% NaCl vs 3.6% NaGluconate, 3.6% KCl, 0.9% NaCl, 0.9% NaCl + mannitol, 2 h, 5 days): greatest increase in transduction efficiency
- Ad gene transfer ([1]; Ad-GFP MOI=250 combined 1:1 with reagent, apical 2 hours, LPC 0.1%, EGTA 250 mM, doxorubicin 5 μM, NaCl 3.6%, Infasurf): conferred remarkable transduction
- co-treatment time giving maximal expression ([1]; Ad-GFP with NaCl 3.6%): 2 h
- % GFP+ cells across pH range ([1]; NaCl 3.6% adjusted to pH 5, 6, 7, 7.4 and 8, Ad-GFP): no significant differences
- % GFP+ cells versus length of exposure ([1]; NaCl 3.6% or Ad-GFP for 5, 15, 30, 60 or 120 min): increased incrementally with increasing temporal exposure
- Ad transduction efficiency (% GFP+ cells) ([1]; dose response 1-7% NaCl final, Ad-GFP MOI=250): dose dependent increase in transduction efficiency
- benefit on Ad transduction ([1]; ≤3% NaCl): little benefit on transduction
- effects on HAE integrity in vitro ([2]; 5% NaCl formulation): negative effects on HAE integrity
- LDH release ([2]; highest concentrations of NaCl (5-7%)): increased LDH release
- NaCl doses with ultimate toxicity ([2]; in vitro HAE): > 6%
- Cl− secretion (short circuit current and conductance, F&I and GlyH) ([3]; CF HAE, Ad-CFTR (MOI=250) and NaCl 3.6%, apical 2 hours, 5 days): wild-type levels of Cl^− secretion
- anion channel activity responses to F&I and GlyH ([3]; CF airway cultures, AAV2.5T-CFTR with NaCl 4.5%, 2 weeks): increased anion channel activity responses
- CFTR-dependent anion transport ([3]; primary CF HAE, GP64 HIV-CFTR (MOI=50) in the presence of NaCl 4.5%): restored the CFTR-dependent anion transport
- MeV infection following apical application [4]: occurred only in the presence of NaCl
- GFP expression, AAV-GFP (AAV2.5T) [5]: significantly higher GFP expression
- transduction with Ad and AAVH22 (fluorescence per high power field) [6]: markedly enhanced
- luciferase expression (bioluminescence) [7]: significantly increased expression in the nose and lung
- GFP+ score (0-3, 20 lung regions) ([8]; Ad-GFP intratracheal, NaCl 5% vs 0.9%, five days): significantly increased
- transduction of ciliated cells and CK5+ basal cells ([8]; Ad-GFP, 5% NaCl): transduction of ciliated cells was observed
- transduction of submucosal glands ([8]; Ad-GFP, 5% NaCl): high levels of transduction
- transduction of large (>500 μm^2) and small (<500 μm^2) airways ([8]; Ad-GFP, 5% NaCl vs 0.9% NaCl): significantly more airway transduction
- transduction by GP64 HIV-GFP ([8]; NaCl 5% vs 0.9% NaCl): significantly enhanced transduction
- Osmolarity ([9]; 0.9% solution): 310 mOsmol/l
- Osmolarity ([9]; 1% solution): 342 mOsmol/l
- Osmolarity ([9]; 2% solution): 684 mOsmol/l
- Osmolarity ([9]; 3% solution): 1027 mOsmol/l
- unadjusted pH ([9]; 3.6% NaCl in deionized water): ~6
- Osmolarity ([9]; 3.6% solution): 1230 mOsmol/l
- Osmolarity ([9]; 4% solution): 1369 mOsmol/l
- Osmolarity ([9]; 5% solution): 1711 mOsmol/l
- Osmolarity ([9]; 6% solution): 2053 mOsmol/l
- Osmolarity ([9]; 7% solution): 2693 mOsmol/l
- effect on cultured cells on plastic [10]: lifting of the cells
- cell surface integrity and ciliation by SEM [11]: no overt physical differences
